Tests used:
Type in all cases: cell-based, human
SC-β cells [1] = test: Insulin secretion of plated SC-β cells treated with anti-diabetic drugs in 2 and 20 mM glucose; conditions: drug-treated versus control
Excerpt: The inventors first tested whether SC-β cells could respond to existing anti-diabetic drugs from several different classes (FIG. 16B). LY2608204 is glucokinase activator in clinical trials while liraglutide, tolbutamide, and nateglinide are examples of GLP-1 agonists and secretagogues (sulfonylureas and meglitinides), respectively, that have been used clinically (Matschinsky, 2009; Modi, 2007; Vetere et al., 2014).

hPSC derived cells = test: Protocol modifications at Steps 3-6: cell survival and marker-positive populations; conditions: for cell survival: treatment during Steps 3-5 of differentiation
Excerpt: One challenge for the stem cell field has been generating a sufficient quantity of SC-β cells that can be useful for drug screening, disease modeling, or therapeutic use. For example, hES cells are technically difficult to culture, are vulnerable to apoptosis upon cellular detachment and dissociation, undergo massive cell death particularly after complete dissociation, and have low cloning efficiency. (Watanabe, K. et al., Nature Biotechnology 25, 681-686 (2007)). As a result, the quantity of viable SC-β cells yielded may be low. By modify the protocol between Steps 3 and 6 in the manner shown in FIG. 15A, more pure NKX6.1+ endocrine clusters can be generated (FIG. 15B) leading to more SC-β cells that can be therapeutically useful.
In Steps 3-5, for instance, cell survival can be improved by adding a rho-associated protein kinase inhibitor, or a Rock inhibitor. It is believed that the addition of a Rock inhibitor enhances survival of ES cells by preventing dissociation-induced apoptosis thus increasing their cloning efficiency. (Watanabe et al.) Examples of Rock inhibitors include, but are not limited to, Y-27632, Fasudil/HA1077, and H-1152.
In addition to treating the cells with a Rocki inhibitor, the cells in Steps 3-4 can be treated with ActivinA alone or in combination with Nicotinamide. […] Since SOX2 and NKX6-1 are mutually exclusive (FIG. 15E), down-regulation of SOX2 results in the up-regulation of NKX6-1, a marker for a mature pancreatic β cell.
In Steps 5-6, cell survival can further be enhanced by treating cells with staurosporine. Staurosporine is known to be an activator of neuronal, glial, and stem cell-like neurosphere differentiation and is also thought to induce apoptosis. (Schumacher, et al., Mol. Cell. Neurosci. 2003; 23(4): 669-680).
Finally, cell survival can further be enhanced by treating cells with a culture medium containing Alk5i, T3 in combination with XXI, a γ-secretase inhibitor that improves β cell maturation.
Cells were dispersed into single-cell suspension by incubation in TrypLE Express at 37° C. for 10-30 min in a 15 ml falcon tube. Starting at stage 5, clusters take longer to dissociate into single cells. Clusters should be incubated with TrypLE Express until they dissociate to single cells upon mixing by pipetting gently up and down with a P1000. The TrypLE Express was quenched with 3-4 times media and cells were spun down for 5 min at 1000 rpm. Cells were washed twice in PBS and transferred to a 1.7 ml Safe seal microcentrifuge tube (Bioscience Inc.; 11510). Make sure having 1-10 mio cells/tube and use 0.5-1 ml volumes in the following. Cells were resuspended in 4% paraformaldehyde (PFA) (Electron Microscopy Science Nm; 15710) and incubated on ice for 30 min. Cells were then washed 3 times in PBS followed by incubation in blocking buffer (PBS+0.1% TritonX100 (VWR; EM-9400)+5% donkey serum (Jackson Immunoresearch; 017-000-121)) on ice for 1 hour. After fixation cells are more resistant to centrifugation, so after fixation all centrifugations were done at 3000 g for 3 min. Cells were then resuspended in blocking buffer with primary antibodies and incubated at 4° C. overnight. […]

SC-β cells [2] = test: GSIS of SC-β cells after adding factors to the CMRL media at the last differentiation step (Stage 6); conditions: factor added to CMRL media containing Alk5 inhibitor and T3 hormone, versus CMRL only, CMRL+Alk5 inhibitor+T3 or S3+Alk5 inhibitor+T3; for stimulation index (ratio of insulin secreted in high glucose to low glucose): 15 mM vs 2.5 mM glucose
Excerpt: To induce the in vitro maturation of at least some of the Pdx1-positive, NKX6-1-positive, insulin-positive endocrine cells into SC-β cells, the Pdx1-positive, NKX6-1-positive, insulin-positive endocrine cells are maintained in a suitable culture medium for a sufficient period of time. […] Adding additional factors to the CMRL media at the last step of differentiation (Stage 6) (FIG. 14A), however, was also found to generate a better glucose stimulated insulin secretion (GSIS) response by SC-β cells as measured by either stimulation index between high and low glucose challenges or by the amount of insulin released. Such additional factors may include, but are not limited to, Sant1, XXI, and SSP. The stimulation index, as calculated by the ratio of insulin secreted in high glucose (15 mM) to low glucose (2.5 mM), was greater for the SC-β cells maintained in a CMRL media containing Alk5 inhibitor, T3 hormone and either Sant1, XXI or SSP than those SC-β cells maintained in only CMRL media, CMRL media containing Alk5 inhibitor and T3 hormone, or S3 media containing Alk5 inhibitor and T3 hormone (FIG. 14B). Furthermore, the amount of insulin secreted was greater for the SC-β cells maintained in a CMRL media containing Alk5 inhibitor, T3 hormone and either Sant1, XXI or SSP than those SC-β cells maintained in only CMRL media, CMRL media containing Alk5 inhibitor and T3 hormone, or S3 media containing Alk5 inhibitor and T3 hormone (FIG. 14C).
Alternatively, Days 21-35: CMRLS+10 μM Alk5i II+1 μM T3+Sant1.
Alternatively, Days 21-35: CMRLS+10 μM Alk5i II+1 μM T3+XXI.
Alternatively, Days 21-35: CMRLS+10 μM Alk5i II+1 μM T3+SSP.

O=C(Nc1ncc(SCCN2CCCC2)s1)[C@]1(c2ccc(S(=O)(=O)C3CC3)cc2)C[C@H]1C1CCCCC1 [LY2608204]
insulin secretion of SC-β cells following a glucose challenge (SC-β cells [1]): trend toward responding to treatment with these drugs by increasing insulin secretion

NC(=O)c1cccnc1 [Nicotinamide]
cell survival (hPSC derived cells): improve cell survival

Cc1nn(-c2ccccc2)c(C)c1/C=N/N1CCN(Cc2ccccc2)CC1 [Sant1]
stimulation index (ratio of insulin secreted in high glucose to low glucose) (SC-β cells [2]): greater | amount of insulin secreted (SC-β cells [2]): greater

C[C@H](NC(=O)Cc1cc(F)cc(F)c1)C(=O)N[C@H]1N=C(c2ccccc2)c2ccccc2N(C)C1=O [XXI]
stimulation index (ratio of insulin secreted in high glucose to low glucose) (SC-β cells [2]): greater | amount of insulin secreted (SC-β cells [2]): greater | NeuroD1+ population (hPSC derived cells; added to medium with Alk5i and T3 at Steps 5 and 6, versus Alk5i and T3 only): increase the NeuroD1+ population

CC(C)[C@H]1CC[C@H](C(=O)N[C@H](Cc2ccccc2)C(=O)O)CC1 [nateglinide]
insulin secretion of SC-β cells following a glucose challenge (SC-β cells [1]): trend toward responding to treatment with these drugs by increasing insulin secretion

CN[C@@H]1C[C@H]2O[C@@](C)([C@@H]1OC)n1c3ccccc3c3c4c(c5c6ccccc6n2c5c31)C(=O)NC4 [staurosporine]
percentage of Chromogranin A (pancreatic endocrine cell marker) (hPSC derived cells; treatment in Steps 5-6): increasing the percentage of Chromogranin A | percentage of NKX6-1/C-peptide+ cells (hPSC derived cells; treatment in Steps 5-6): increasing the percentage of NKX6-1.C-peptide+ cells

CCCCNC(=O)NS(=O)(=O)c1ccc(C)cc1 [tolbutamide]
insulin secretion of SC-β cells following a glucose challenge (SC-β cells [1]): trend toward responding to treatment with these drugs by increasing insulin secretion

B1: Activin A: growth factor from the TGF-β superfamily (protein, UniProt P08476 311-426, looked up)
Inhibin beta A chain: GLECDGKVNICCKKQFFVSFKDIGWNDWIIAPSGYHANYCEGECPSHIAGTSGSSLSFHSTVINHYRMRGHSPFANLKSCCVPTKLRPMSMLYYDDGQNIIKKDIQNMIVEECGCS
modifications: Inhibin beta A chain
notes: growth factor from the TGF-β superfamily
cell survival (hPSC derived cells): improve cell survival

Reference: patent US12049646B2, “SC-beta cells and compositions and methods for generating the same” (President and Fellows of Harvard College, priority 2013, dated 2024)
